A short description of data set [1]: Hydrolytic stability study in DMSO and water (3:1). As to conditions: 1 mg/mL. The format is physicochemical. As to the method:
General HPLC Procedure • Agilent, Waters X-Select C18, 2.5 μm, 4.6×30 mm column, 4 min method, 5-95% MeCN/water (0.1% formic acid). • Flow rate 2.5 ml/min • Column Oven Temperature 40° C. • Detection 254 nm.
Sample Preparation • A 1.0 mg sample of test compound was dissolved in 750 μL of DMSO. Water (250 μL) was added slowly, ensuring no precipitation occurred.
Recording Stability • A 50 μL aliquot of the test solution was removed and analysed in duplicate by 5 μL HPLC injections. The peak area for the test compound was recorded following manual integration of the corresponding UV trace. • The test solution was heated to 60° C., with stirring, and 50 μL aliquots removed for HPLC analysis at 5 and 24 h timepoints.

Data set [2] has as its target p38 MAPKα (Homo sapiens (Human), UniProt Q16539). The experiment in a line: p38 MAPKα enzyme inhibition (FRET, Method 2). The data set is classed as biochemical.
Data set [3] concerns the target c-Src (Homo sapiens (Human), UniProt P12931). The experiment in a line: c-Src enzyme inhibition (FRET). The format is biochemical. The essentials: (§1)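 Z-LYTE FRET peptide assay: c-Src (3000 ng/mL) or Syk (2000 ng/mL) preincubated 2 h at room temperature with compound (4–0.004 μg/mL working solutions). Reaction was 1 h with peptide (8 μM solution) and ATP (800 μM c-Src, 60 μM Syk solutions), followed by 1 h protease development. Phosphorylation was read as the coumarin/fluorescein emission ratio.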

Data set [4] has as its target Syk (Homo sapiens (Human), UniProt P43405). Kind of data set: Syk enzyme inhibition (FRET). The format is biochemical. The essentials:
as §1

Data set [5] addresses GSK3α (Homo sapiens (Human), UniProt P49840). Kind of data set: GSK 3α enzyme inhibition (FRET, Method 2). The data set is classed as biochemical. The essentials: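 Z-LYTE FRET: GSK3α preincubated with compound 2 h at RT, then FRET peptide and ATP added (stocks 8 μM and 40 μM) for 1 h, followed by 1 h protease development. Compound stocks 4–0.004 μg/mL; phosphorylation from coumarin/fluorescein emission ratio.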

Data set [6] deals with PBMCs. Kind of data set: (b) LPS-induced TNFα/IL-8 release in PBMC cells. The data set is classed as cell-based. As to conditions: Homo sapiens, read-out: IC50 for Inhibition of Cytokine Release, IL-8.
Data set [7] deals with PBMCs. Kind of data set: (c) IL-2 and IFN gamma release in CD3/CD28 stimulated PBMC cells. The format is cell-based. As to conditions: Homo sapiens. As to the method: PBMCs from healthy subjects are separated from whole blood using a density gradient (Lymphoprep, Axis-Shield Healthcare). Cells are added to a 96 well plate pre-coated with a mixture of CD3/CD28 monoclonal antibodies (0.3 ug/ml eBioscience and 3 ug/ml BD Pharmingen respectively). Compound at the desired concentration is then added to the wells and the plate left for 3 days under normal tissue culture conditions. […] The IC50 is determined from the dose response curve.

The subject of data set [8] is HT29 cells. The experiment in a line: (d) IL-1β-induced IL-8 release in HT29 cells. The format is cell-based. As to conditions: Homo sapiens, HT-29, read-out: IC50 for Inhibition of Cytokine Release, IL-8. The method, then:
HT29 cells, a human colon adenocarcinoma cell line, are plated in a 96 well plate (24 hrs) and pre-treated with compounds at the desired concentration for 2 hours before addition of 5 ng/ml of IL-1β (Abeam) for 24 hours. Supernatants are harvested for IL-8 quantification by Sandwich ELISA (Duo-set, R&D System). The IC50 is determined from the dose response curve.

Data set [9] has as its system PBMCs. The experiment in a line: (i) Cell mitosis assay in PBMCs. The format is cell-based. As to conditions: Homo sapiens, PBMC, 5 μg/mL. The method, then:
PBMCs from healthy subjects are separated from whole blood (Quintiles, London, UK) using a density gradient (Histopaque®-1077, Sigma-Aldrich, Poole, UK). The PBMCs (3 million cells per sample) are subsequently treated with 2% PHA (Sigma-Aldrich, Poole, UK) for 48 hr, followed by a 20 hr exposure to varying concentrations of test compounds. At 2 hr before collection, PBMCs are treated with demecolcine (0.1 μg/mL; Invitrogen, Paisley, UK) to arrest cells in metaphase. […] Fluorescence is observed using an ATTUNE flow cytometer (Invitrogen, Paisley, UK), gating for lymphocytes.

In data set [10] the test system is β-catenin. Kind of data set: (m) Accumulation of β catenin in d-U937 cells. The data set is classed as cell-based, human. As to conditions: Reference Compound at 1 μg/mL defined as 100%. The essentials: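 Read-out: colourimetric cell-based immunoassay for endogenous β-catenin (OD450 minus 655 reference), normalised to crystal violet absorbance at 595 nm. Test compound or vehicle was applied for 18 hr to U937 monocytes first differentiated with PMA (100 ng/mL) for 48–72 hr.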

p38 MAPKα, sequence (Q16539 whole entry): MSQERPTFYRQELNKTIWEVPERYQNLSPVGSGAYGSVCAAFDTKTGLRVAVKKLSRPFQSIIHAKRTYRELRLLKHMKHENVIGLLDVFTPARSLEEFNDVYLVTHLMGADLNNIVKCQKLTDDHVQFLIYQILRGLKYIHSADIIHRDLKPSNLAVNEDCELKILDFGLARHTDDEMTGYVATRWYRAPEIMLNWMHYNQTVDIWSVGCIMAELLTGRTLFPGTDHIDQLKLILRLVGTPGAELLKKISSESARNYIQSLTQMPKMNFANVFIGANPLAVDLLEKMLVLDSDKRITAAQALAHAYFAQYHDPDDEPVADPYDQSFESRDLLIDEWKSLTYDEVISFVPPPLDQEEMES
GSK3α, sequence (P49840 whole entry): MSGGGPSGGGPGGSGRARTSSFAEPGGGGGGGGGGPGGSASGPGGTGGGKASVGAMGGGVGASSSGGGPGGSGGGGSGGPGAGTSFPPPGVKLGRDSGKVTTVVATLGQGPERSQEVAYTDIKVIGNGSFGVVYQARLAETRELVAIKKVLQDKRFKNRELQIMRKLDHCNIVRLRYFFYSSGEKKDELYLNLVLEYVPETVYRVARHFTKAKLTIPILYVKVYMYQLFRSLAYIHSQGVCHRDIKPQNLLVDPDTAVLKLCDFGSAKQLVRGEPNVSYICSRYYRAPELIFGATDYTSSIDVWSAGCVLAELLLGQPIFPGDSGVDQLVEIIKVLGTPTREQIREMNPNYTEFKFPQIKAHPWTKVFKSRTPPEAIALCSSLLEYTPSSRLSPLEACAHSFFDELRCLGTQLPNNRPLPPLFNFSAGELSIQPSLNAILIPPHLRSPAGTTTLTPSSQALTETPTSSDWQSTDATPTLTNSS
c-Src, sequence (P12931 whole entry, looked up): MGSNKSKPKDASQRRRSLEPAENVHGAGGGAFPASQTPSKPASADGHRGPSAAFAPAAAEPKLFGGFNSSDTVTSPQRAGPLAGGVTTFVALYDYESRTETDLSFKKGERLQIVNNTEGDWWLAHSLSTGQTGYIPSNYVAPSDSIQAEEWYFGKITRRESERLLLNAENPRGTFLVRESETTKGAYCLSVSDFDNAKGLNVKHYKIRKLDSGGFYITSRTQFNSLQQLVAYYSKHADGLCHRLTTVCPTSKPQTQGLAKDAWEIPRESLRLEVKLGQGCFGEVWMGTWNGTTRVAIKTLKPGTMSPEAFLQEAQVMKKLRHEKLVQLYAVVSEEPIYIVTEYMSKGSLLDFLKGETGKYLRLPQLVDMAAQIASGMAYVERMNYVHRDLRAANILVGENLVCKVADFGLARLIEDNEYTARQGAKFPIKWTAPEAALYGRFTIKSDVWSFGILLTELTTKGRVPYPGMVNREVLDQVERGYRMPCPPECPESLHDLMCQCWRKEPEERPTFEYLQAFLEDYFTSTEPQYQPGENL

For the molecule `C#Cc1cc(Nc2nccc(Oc3ccc(NC(=O)Nc4cc(C(C)C)nn4-c4ccc(C)cc4)c4ccccc34)n2)cc(C(=O)NCCN2CCOCC2)c1` [Reference Compound A, 3-ethynyl-5-((4-((4-(3-(3-isopropyl-1-(p-tolyl)-1H-pyrazol-5-yl)ureido)naphthalen-1-yl)oxy)pyrimidin-2-yl)amino)-N-(2-morpholinoethyl)benzamide, reference compound], the “% left” value came to 100% in data set [1] (0 min); 82% in data set [1] (60° C., 300 min); 36% in [1] (60° C., 1440 min).

On to `COCCOCCOCCNC(=O)c1cc(Nc2cc(Oc3ccc(NC(=O)Nc4cc(C(C)(C)C)nn4-c4ccc(C)cc4)c4ccccc34)ccn2)cc(OC)c1` [Example 4, 3-((4-((4-(3-(3-(tert-Butyl)-1-(p-tolyl)-1H-pyrazol-5-yl)ureido)naphthalen-1-yl)oxy)pyridin-2-yl)amino)-5-methoxy-N-(2-(2-(2-methoxyethoxy)ethoxy)ethyl)-benzamide], for which the 50% inhibitory concentration (IC50) (commonly the point on the concentration scale where inhibition reaches its midpoint) in [2] is 50 nM; in data set [3], 19 nM; in data set [4], 46 nM; in data set [5], 9550 nM; in [6], 1.4 nM; in [7] (read-out: IC50 for Inhibition of Cytokine Release, IFNγ) it was 2.4 nM. The half-inhibitory concentration (IC50) in [7] (read-out: IC50 for Inhibition of Cytokine Release, IL-2) came to 37.4 nM; in [8], 5.3 nM. Moreover, testing at 5 µg/mL in data set [9] gave an inhibition of 38.8%. Further, the “% β-catenin induction” value is on record as 5% in data set [10] (1 μg/mL) and 12% in data set [10] (5 μg/mL).

For the origin of these results see US10301288B2, “Kinase inhibitors” (Topivert Pharma Limited, priority 2013, dated 2019).
